Assay results as given in ChEMBL document CHEMBL1158722, “Umbelactonyl cinnamate derivatives from Crypteronia paniculata that mediate DNA strand scission” (J Nat Prod, 2005).
Calls of active or inactive are those of the source. The calls are words filed in the database; no cut-off is given here.

Columns and labels:
[1] = system: Escherichia coli; test: Induction of Cu2+-dependent DNA cleavage in pSP64 DNA assessed as form 2 DNA formation at 0.01 uM
[2] = system: Escherichia coli; test: Induction of Cu2+-dependent DNA cleavage in pSP64 DNA assessed as form 3 DNA formation
[3] = system: Escherichia coli; test: Induction of Cu2+-dependent DNA cleavage in pSP64 DNA assessed as form 2 DNA formation at 10 uM
[4] = system: Escherichia coli; test: Induction of Cu2+-dependent DNA cleavage in pSP64 DNA assessed as form 2 DNA formation at 5 uM
[5] = system: Escherichia coli; test: Induction of Cu2+-dependent DNA cleavage in pSP64 DNA assessed as form 2 DNA formation at 1 uM
[6] = system: Escherichia coli; test: Induction of Cu2+-dependent DNA cleavage in pSP64 DNA assessed as form 2 DNA formation at 0.1 uM

- Activity [1]: 16%
- Activity [2]: inactive
- Activity [3]: 92%
- Activity [4]: 88%
- Activity [5]: 68%
- Activity [6]: 32%
Structure (SMILES): CC1=CC(=O)O[C@H]1COC(=O)/C=C/c1ccc(O)c(O)c1
